{"source": "paper PMC2150390", "about": "“High-dose cyclosporin with etoposide--toxicity and pharmacokinetic interaction in children with solid tumours” (British Journal of Cancer, 1998)", "test": "Etoposide pharmacokinetics with and without cyclosporin (plasma HPLC, non-compartmental analysis)", "type": "in vivo, human", "details": "for Clearance Cl+ / Half-life t1/2+ / Area under drug concentration curve AUC+: with cyclosporin; for Clearance Cl+ / Half-life t1/2+ / Area under drug concentration curve AUC+ / Clearance Cl- / Half-life t1/2- / Area under drug concentration curve AUC-: etoposide 150 mg m-2 over 1 hour; for Area under drug concentration curve AUC+ / Area under drug concentration curve AUC-: plasma HPLC, non-compartmental; for Median area under the concentration time curve for etoposide: etoposide 150 mg m-2 i.v.", "key": {"[1]": {"details": "Table 3, patient 1, cyclosporin schedule A"}, "[2]": {"details": "Table 3, patient 1, cyclosporin schedule A, without cyclosporin"}, "[3]": {"details": "Table 3, patient 2, cyclosporin schedule A"}, "[4]": {"details": "Table 3, patient 2, cyclosporin schedule A, without cyclosporin"}, "[5]": {"details": "Table 3, patient 4, cyclosporin schedule A"}, "[6]": {"details": "Table 3, patient 4, cyclosporin schedule A, without cyclosporin"}, "[7]": {"details": "Table 3, patient 5, cyclosporin schedule A"}, "[8]": {"details": "Table 3, patient 5, cyclosporin schedule A, without cyclosporin"}, "[9]": {"details": "Table 3, patient 6, cyclosporin schedule A"}, "[10]": {"details": "Table 3, patient 6, cyclosporin schedule A, without cyclosporin"}, "[11]": {"details": "Table 3, patient 7, cyclosporin schedule A"}, "[12]": {"details": "Table 3, patient 7, cyclosporin schedule A, without cyclosporin"}, "[13]": {"details": "Table 3, patient 8, cyclosporin schedule A"}, "[14]": {"details": "Table 3, patient 8, cyclosporin schedule A, without cyclosporin"}, "[15]": {"details": "Table 3, patient 9, cyclosporin schedule B"}, "[16]": {"details": "Table 3, patient 9, cyclosporin schedule B, without cyclosporin"}, "[17]": {"details": "Table 3, patient 10, cyclosporin schedule B"}, "[18]": {"details": "Table 3, patient 10, cyclosporin schedule B, without cyclosporin"}, "[19]": {"details": "Table 3, patient 11, cyclosporin schedule B"}, "[20]": {"details": "Table 3, patient 11, cyclosporin schedule B, without cyclosporin"}, "[21]": {"details": "Table 3, patient 13, cyclosporin schedule B"}, "[22]": {"details": "Table 3, patient 13, cyclosporin schedule B, without cyclosporin"}, "[23]": {"details": "Table 3, patient 14, cyclosporin schedule A"}, "[24]": {"details": "Table 3, patient 14, cyclosporin schedule A, without cyclosporin"}, "[25]": {"details": "Table 3, patient 15, cyclosporin schedule A"}, "[26]": {"details": "Table 3, patient 15, cyclosporin schedule A, without cyclosporin"}, "[27]": {"details": "Table 3, patient 17, cyclosporin schedule A"}, "[28]": {"details": "Table 3, patient 17, cyclosporin schedule A, without cyclosporin"}, "[29]": {"details": "Table 3, patient 18, cyclosporin schedule A"}, "[30]": {"details": "Table 3, patient 18, cyclosporin schedule A, without cyclosporin"}}}
{"smiles": "COc1cc([C@@H]2c3cc4c(cc3[C@@H](O[C@@H]3O[C@@H]5CO[C@@H](C)O[C@H]5[C@H](O)[C@H]3O)[C@H]3COC(=O)[C@H]23)OCO4)cc(OC)c1O", "note": "[etoposide]", "values": [{"measurement": "Mean change in etoposide AUC with cyclosporin", "setting": "15 patients, paired, P < 0.001", "result": "+89%"}, {"measurement": "Mean change in etoposide clearance with cyclosporin", "setting": "15 patients, paired, P < 0.001", "result": -48, "unit": "%"}, {"measurement": "Clearance Cl+", "setting": "[1]", "result": 15.7, "unit": "mL/min"}, {"measurement": "Half-life t1/2+", "setting": "[1]", "result": 305, "unit": "min"}, {"measurement": "Area under drug concentration curve AUC+", "setting": "[1]", "result": 14.6, "unit": "mg·min/mL"}, {"measurement": "Clearance Cl-", "setting": "[2]", "result": 28.5, "unit": "mL/min"}, {"measurement": "Half-life t1/2-", "setting": "[2]", "result": 196, "unit": "min"}, {"measurement": "Area under drug concentration curve AUC-", "setting": "[2]", "result": 8.1, "unit": "mg·min/mL"}, {"measurement": "Clearance Cl+", "setting": "[3]", "result": 8.6, "unit": "mL/min"}, {"measurement": "Half-life t1/2+", "setting": "[3]", "result": 557, "unit": "min"}, {"measurement": "Area under drug concentration curve AUC+", "setting": "[3]", "result": 26.2, "unit": "mg·min/mL"}, {"measurement": "Clearance Cl-", "setting": "[4]", "result": 22.0, "unit": "mL/min"}, {"measurement": "Half-life t1/2-", "setting": "[4]", "result": 206, "unit": "min"}, {"measurement": "Area under drug concentration curve AUC-", "setting": "[4]", "result": 10.2, "unit": "mg·min/mL"}, {"measurement": "Clearance Cl+", "setting": "[5]", "result": 18.6, "unit": "mL/min"}, {"measurement": "Half-life t1/2+", "setting": "[5]", "result": 345, "unit": "min"}, {"measurement": "Area under drug concentration curve AUC+", "setting": "[5]", "result": 16.9, "unit": "mg·min/mL"}, {"measurement": "Clearance Cl-", "setting": "[6]", "result": 36.5, "unit": "mL/min"}, {"measurement": "Half-life t1/2-", "setting": "[6]", "result": 305, "unit": "min"}, {"measurement": "Area under drug concentration curve AUC-", "setting": "[6]", "result": 8.6, "unit": "mg·min/mL"}, {"measurement": "Clearance Cl+", "setting": "[7]", "result": 15.2, "unit": "mL/min"}, {"measurement": "Half-life t1/2+", "setting": "[7]", "result": 189, "unit": "min"}, {"measurement": "Area under drug concentration curve AUC+", "setting": "[7]", "result": 7.9, "unit": "mg·min/mL"}, {"measurement": "Clearance Cl-", "setting": "[8]", "result": 30.2, "unit": "mL/min"}, {"measurement": "Half-life t1/2-", "setting": "[8]", "result": 120, "unit": "min"}, {"measurement": "Area under drug concentration curve AUC-", "setting": "[8]", "result": 3.8, "unit": "mg·min/mL"}, {"measurement": "Clearance Cl+", "setting": "[9]", "result": 11.9, "unit": "mL/min"}, {"measurement": "Half-life t1/2+", "setting": "[9]", "result": 229, "unit": "min"}, {"measurement": "Area under drug concentration curve AUC+", "setting": "[9]", "result": 8.8, "unit": "mg·min/mL"}, {"measurement": "Clearance Cl-", "setting": "[10]", "result": 15.9, "unit": "mL/min"}, {"measurement": "Half-life t1/2-", "setting": "[10]", "result": 165, "unit": "min"}, {"measurement": "Area under drug concentration curve AUC-", "setting": "[10]", "result": 6.6, "unit": "mg·min/mL"}, {"measurement": "Clearance Cl+", "setting": "[11]", "result": 10.8, "unit": "mL/min"}, {"measurement": "Half-life t1/2+", "setting": "[11]", "result": 283, "unit": "min"}, {"measurement": "Area under drug concentration curve AUC+", "setting": "[11]", "result": 10.7, "unit": "mg·min/mL"}, {"measurement": "Clearance Cl-", "setting": "[12]", "result": 21.9, "unit": "mL/min"}, {"measurement": "Half-life t1/2-", "setting": "[12]", "result": 103, "unit": "min"}, {"measurement": "Area under drug concentration curve AUC-", "setting": "[12]", "result": 5.3, "unit": "mg·min/mL"}, {"measurement": "Clearance Cl+", "setting": "[13]", "result": 9.9, "unit": "mL/min"}, {"measurement": "Half-life t1/2+", "setting": "[13]", "result": 414, "unit": "min"}, {"measurement": "Area under drug concentration curve AUC+", "setting": "[13]", "result": 10.1, "unit": "mg·min/mL"}, {"measurement": "Clearance Cl-", "setting": "[14]", "result": 27.2, "unit": "mL/min"}, {"measurement": "Half-life t1/2-", "setting": "[14]", "result": 123, "unit": "min"}, {"measurement": "Area under drug concentration curve AUC-", "setting": "[14]", "result": 3.6, "unit": "mg·min/mL"}, {"measurement": "Clearance Cl+", "setting": "[15]", "result": 10.0, "unit": "mL/min"}, {"measurement": "Half-life t1/2+", "setting": "[15]", "result": 294, "unit": "min"}, {"measurement": "Area under drug concentration curve AUC+", "setting": "[15]", "result": 16.4, "unit": "mg·min/mL"}, {"measurement": "Clearance Cl-", "setting": "[16]", "result": 25.8, "unit": "mL/min"}, {"measurement": "Half-life t1/2-", "setting": "[16]", "result": 208, "unit": "min"}, {"measurement": "Area under drug concentration curve AUC-", "setting": "[16]", "result": 6.4, "unit": "mg·min/mL"}, {"measurement": "Clearance Cl+", "setting": "[17]", "result": 11.6, "unit": "mL/min"}, {"measurement": "Half-life t1/2+", "setting": "[17]", "result": 416, "unit": "min"}, {"measurement": "Area under drug concentration curve AUC+", "setting": "[17]", "result": 14.2, "unit": "mg·min/mL"}, {"measurement": "Clearance Cl-", "setting": "[18]", "result": 28.6, "unit": "mL/min"}, {"measurement": "Half-life t1/2-", "setting": "[18]", "result": 82, "unit": "min"}, {"measurement": "Area under drug concentration curve AUC-", "setting": "[18]", "result": 5.8, "unit": "mg·min/mL"}, {"measurement": "Clearance Cl+", "setting": "[19]", "result": 16.2, "unit": "mL/min"}, {"measurement": "Half-life t1/2+", "setting": "[19]", "result": 314, "unit": "min"}, {"measurement": "Area under drug concentration curve AUC+", "setting": "[19]", "result": 14.3, "unit": "mg·min/mL"}, {"measurement": "Clearance Cl-", "setting": "[20]", "result": 32.5, "unit": "mL/min"}, {"measurement": "Half-life t1/2-", "setting": "[20]", "result": 176, "unit": "min"}, {"measurement": "Area under drug concentration curve AUC-", "setting": "[20]", "result": 7.4, "unit": "mg·min/mL"}, {"measurement": "Clearance Cl+", "setting": "[21]", "result": 7.8, "unit": "mL/min"}, {"measurement": "Half-life t1/2+", "setting": "[21]", "result": 296, "unit": "min"}, {"measurement": "Area under drug concentration curve AUC+", "setting": "[21]", "result": 13.1, "unit": "mg·min/mL"}, {"measurement": "Clearance Cl-", "setting": "[22]", "result": 15.3, "unit": "mL/min"}, {"measurement": "Half-life t1/2-", "setting": "[22]", "result": 148, "unit": "min"}, {"measurement": "Area under drug concentration curve AUC-", "setting": "[22]", "result": 6.7, "unit": "mg·min/mL"}, {"measurement": "Clearance Cl+", "setting": "[23]", "result": 14.3, "unit": "mL/min"}, {"measurement": "Half-life t1/2+", "setting": "[23]", "result": 401, "unit": "min"}, {"measurement": "Area under drug concentration curve AUC+", "setting": "[23]", "result": 15.8, "unit": "mg·min/mL"}, {"measurement": "Clearance Cl-", "setting": "[24]", "result": 29.3, "unit": "mL/min"}, {"measurement": "Half-life t1/2-", "setting": "[24]", "result": 154, "unit": "min"}, {"measurement": "Area under drug concentration curve AUC-", "setting": "[24]", "result": 7.7, "unit": "mg·min/mL"}, {"measurement": "Clearance Cl+", "setting": "[25]", "result": 22.6, "unit": "mL/min"}, {"measurement": "Half-life t1/2+", "setting": "[25]", "result": 407, "unit": "min"}, {"measurement": "Area under drug concentration curve AUC+", "setting": "[25]", "result": 12.9, "unit": "mg·min/mL"}, {"measurement": "Clearance Cl-", "setting": "[26]", "result": 38.1, "unit": "mL/min"}, {"measurement": "Half-life t1/2-", "setting": "[26]", "result": 258, "unit": "min"}, {"measurement": "Area under drug concentration curve AUC-", "setting": "[26]", "result": 7.7, "unit": "mg·min/mL"}, {"measurement": "Clearance Cl+", "setting": "[27]", "result": 20.2, "unit": "mL/min"}, {"measurement": "Half-life t1/2+", "setting": "[27]", "result": 367, "unit": "min"}, {"measurement": "Area under drug concentration curve AUC+", "setting": "[27]", "result": 13.4, "unit": "mg·min/mL"}, {"measurement": "Clearance Cl-", "setting": "[28]", "result": 29.1, "unit": "mL/min"}, {"measurement": "Half-life t1/2-", "setting": "[28]", "result": 231, "unit": "min"}, {"measurement": "Area under drug concentration curve AUC-", "setting": "[28]", "result": 9.3, "unit": "mg·min/mL"}, {"measurement": "Clearance Cl+", "setting": "[29]", "result": 10.1, "unit": "mL/min"}, {"measurement": "Half-life t1/2+", "setting": "[29]", "result": 681, "unit": "min"}, {"measurement": "Area under drug concentration curve AUC+", "setting": "[29]", "result": 21.5, "unit": "mg·min/mL"}, {"measurement": "Clearance Cl-", "setting": "[30]", "result": 12.8, "unit": "mL/min"}, {"measurement": "Half-life t1/2-", "setting": "[30]", "result": 616, "unit": "min"}, {"measurement": "Area under drug concentration curve AUC-", "setting": "[30]", "result": 17.1, "unit": "mg·min/mL"}, {"measurement": "Percentage increase in etoposide AUC, mean", "setting": "cyclosporin 3-h infusion", "result": 106, "unit": "%"}, {"measurement": "Percentage increase in etoposide AUC, mean", "setting": "cyclosporin 24-h infusion", "result": 89, "unit": "%"}, {"measurement": "Median area under the concentration time curve for etoposide", "setting": "with high-dose cyclosporin", "result": 12.5, "unit": "mg·min/mL"}, {"measurement": "Median area under the concentration time curve for etoposide", "setting": "without cyclosporin", "result": 7.2, "unit": "mg·min/mL"}]}
